Measurements taken from BindingDB's records for patent US20250136619 (Halda Therapeutics OPCO, 2025).
pKd: −log10 of the molar value.

Target: Tyrosine-protein kinase BTK (Homo sapiens, UniProt Q06187)
Test: Assay for Binding Affinity to BTK
Experimental: Compounds were tested using a KdELECT assay. Kinase-tagged T7 phage strains were prepared in an E. coli host derived from the BL21 strain. E. coli were grown to log-phase and infected with T7 phage and incubated with shaking at 32° C. until lysis. The lysates were centrifuged and filtered to remove cell debris. The remaining kinases were produced in HEK-293 cells and subsequently tagged with DNA for qPCR detection. Streptavidin-coated magnetic beads were treated with biotinylated small molecule ligands for 30 minutes at room temperature to generate affinity resins for kinase assays. The liganded beads were blocked with excess biotin and washed with blocking buffer (SeaBlock (Pierce), 1% BSA, 0.05% Tween 20, 1 mM DTT) to remove unbound ligand and to reduce non-specific binding. Binding reactions were assembled by combining kinases, liganded affinity beads, and test compounds in 1× binding buffer (20% SeaBlock, 0.17×PBS, 0.05% Tween 20, 6 mM DTT). Test compounds were prepared as 111X stocks in 100% DMSO. Kd values were determined using an 11-point 3-fold compound dilution series with three DMSO control points. All compounds for Kd measurements are distributed by acoustic transfer (non-contact dispensing) in 100% DMSO. The compounds were then diluted directly into the assays such that the final concentration of DMSO was 0.9%. […] The kinase concentration in the eluates was measured by qPCR.

Sequence of Tyrosine-protein kinase BTK (Q06187 whole entry): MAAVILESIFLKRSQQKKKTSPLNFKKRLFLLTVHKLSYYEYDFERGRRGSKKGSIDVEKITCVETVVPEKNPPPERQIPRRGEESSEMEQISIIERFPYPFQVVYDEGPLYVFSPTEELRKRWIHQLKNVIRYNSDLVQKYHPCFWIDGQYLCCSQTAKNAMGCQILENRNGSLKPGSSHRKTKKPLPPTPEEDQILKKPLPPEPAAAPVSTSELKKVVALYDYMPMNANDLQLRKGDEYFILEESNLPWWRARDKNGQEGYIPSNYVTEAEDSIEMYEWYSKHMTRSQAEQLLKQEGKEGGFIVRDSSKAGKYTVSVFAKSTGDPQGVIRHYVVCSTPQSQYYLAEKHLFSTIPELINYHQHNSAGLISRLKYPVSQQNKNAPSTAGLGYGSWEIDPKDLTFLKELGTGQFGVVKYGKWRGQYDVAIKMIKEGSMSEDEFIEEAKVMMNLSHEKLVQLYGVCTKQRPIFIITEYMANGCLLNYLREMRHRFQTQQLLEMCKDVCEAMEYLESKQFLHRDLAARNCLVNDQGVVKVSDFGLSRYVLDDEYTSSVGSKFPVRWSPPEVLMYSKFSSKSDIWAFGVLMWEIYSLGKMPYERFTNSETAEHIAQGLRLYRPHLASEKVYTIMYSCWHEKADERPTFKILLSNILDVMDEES

pKd: > 7.30
Structure (SMILES): CCc1cnn2c(NCc3ccc(OCCOCCOCCOCCOCCOCCOCCOCCOCCOC/C=C/C(=O)N4CCC[C@@H](n5nc(-c6ccc(Oc7ccccc7)cc6)c6c(N)ncnc65)C4)nc3)cc(N3CCCC[C@H]3CCO)nc12 [US20250136619, Compound I-47]
